Test results from the supplement of paper PMC11208160.
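Note: IS621 bridge recombinase in Escherichia coli cells against a fixed T5 target plasmid.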

Assay: recombinant UMI read abundance after kanamycin selection (control-corrected) (log10(CPM+1)); higher = more efficient recombination; extreme values may be limits of the assay; sequences stand for … in AGTGCAGAGAAAATCGGCCAGTTTTCTCTGCCTGCAGTCCGCATGCCGTGGGACCCCTTGGGTTCTAACCTGTTGCCTAGATTTATGCAGCGGACTGCCTTTCTCCCAAAGTGATAAACCGG…AGGTTGGTTTCACT; site = the 11-nt donor
Outline: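 Values are reported as log10(CPM+1), obtained by converting sequencing counts to CPM, averaging replicates and scaling by control-derived factors. The counts came from recombinant UMIs amplified by PCR across the donor–target junction. These UMIs came from a pooled Escherichia coli screen of donor and donor-binding-loop pairs for the IS621 bridge recombinase, plated with IPTG (0.07 mM) plus kanamycin or left unselected, in two replicates each.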
For “AGAATCACATGGACCGGTTTTCCCGGTAATCCGTATTTGAA (site AGAATCACTTT)”, the “recombinant UMI read abundance (log10)” value was 2.16.
In the case of “AGACGAACATGGACCGGTTTTCCCGGTAATCCGTATTTGGA (site AGACGAACTTC)”, the “recombinant UMI read abundance (log10)” value is reported as 1.82.
With “AGACGCACATGGACCGGTTTTCCCGGTAATCCGTATTTGAA (site AGACGCACTTT)” the “recombinant UMI read abundance (log10)” value was 1.43.
With “AGACGCGCATGGACCGGTTTTCCCGGTAATCCGTATTTGTA (site AGACGCGCTTA)” the “recombinant UMI read abundance (log10)” value was 2.72.
With “AGACGGTCATGGACCGGTTTTCCCGGTAATCCGTATTTGGC (site AGACGGTCTGC)” the “recombinant UMI read abundance (log10)” value was 3.28.
With “AGACTAACATGGACCGGTTTTCCCGGTAATCCGTATTTGCT (site AGACTAACTAG)” the “recombinant UMI read abundance (log10)” value was 2.61.
With “AGACTAGCATGGACCGGTTTTCCCGGTAATCCGTATTTGTT (site AGACTAGCTAA)” the “recombinant UMI read abundance (log10)” value was 1.07.
For “AGACTAGCATGGACCGGTTTTCCCGGTAATCCGTATTTGTT (site AGCCTAGCTAA)”, the “recombinant UMI read abundance (log10)” value was 0.00926.
For “AGACTAGCATGGACCGGTTTTCCCGGTAATCCGTATTTGTT (site AGGCTAGCTAA)”, the “recombinant UMI read abundance (log10)” value was 0.0149.
In the case of “AGACTAGCATGGACCGGTTTTCCCGGTAATCCGTATTTGTT (site AGTCTAGCTAA)”, the “recombinant UMI read abundance (log10)” value is reported as 0.0145.
In the case of “AGAGACGCATGGACCGGTTTTCCCGGTAATCCGTATTTGAG (site AGAGACGCTCT)”, the “recombinant UMI read abundance (log10)” value is reported as 2.67.
For “AGAGAGACATGGACCGGTTTTCCCGGTAATCCGTATTTGCA (site AGAGAGACTTG)”, the “recombinant UMI read abundance (log10)” value was 2.98.
With “AGAGAGACATGGACCGGTTTTCCCGGTAATCCGTATTTGCA (site AGGAAGACTTG)” the “recombinant UMI read abundance (log10)” value was 1.56.
In the case of “AGAGAGGCATGGACCGGTTTTCCCGGTAATCCGTATTTGCT (site AGAAAGGCTAG)”, the “recombinant UMI read abundance (log10)” value is reported as 2.43.
With “AGAGAGGCATGGACCGGTTTTCCCGGTAATCCGTATTTGCT (site AGACAGGCTAG)” the “recombinant UMI read abundance (log10)” value was 0.828.
For “AGAGAGGCATGGACCGGTTTTCCCGGTAATCCGTATTTGCT (site AGAGAGGCTAG)”, the “recombinant UMI read abundance (log10)” value was 2.19.
In the case of “AGAGAGGCATGGACCGGTTTTCCCGGTAATCCGTATTTGCT (site AGATAGGCTAG)”, the “recombinant UMI read abundance (log10)” value is reported as 1.69.
In the case of “AGAGATGCATGGACCGGTTTTCCCGGTAATCCGTATTTGGG (site AGAGATGCTCC)”, the “recombinant UMI read abundance (log10)” value is reported as 1.2.
For “AGAGCATCATGGACCGGTTTTCCCGGTAATCCGTATTTGCT (site AGAGCATCTAG)”, the “recombinant UMI read abundance (log10)” value was 2.16.
With “AGAGCATCATGGACCGGTTTTCCCGGTAATCCGTATTTGCT (site CGATCATCTAG)” the “recombinant UMI read abundance (log10)” value was 0.
In the case of “AGAGCTTCATGGACCGGTTTTCCCGGTAATCCGTATTTGGA (site AGAGCTTCTTC)”, the “recombinant UMI read abundance (log10)” value is reported as 2.31.
For “AGAGTATCATGGACCGGTTTTCCCGGTAATCCGTATTTGAA (site ACAGTATCTTG)”, the “recombinant UMI read abundance (log10)” value was 2.21.
In the case of “AGAGTATCATGGACCGGTTTTCCCGGTAATCCGTATTTGAA (site AGAGTATCTTT)”, the “recombinant UMI read abundance (log10)” value is reported as 3.15.
With “AGAGTGGCATGGACCGGTTTTCCCGGTAATCCGTATTTGGT (site AGAGTGGCTAC)” the “recombinant UMI read abundance (log10)” value was 1.47.
For “AGAGTGGCATGGACCGGTTTTCCCGGTAATCCGTATTTGGT (site CGAGTGGCTAC)”, the “recombinant UMI read abundance (log10)” value was 0.973.
With “AGAGTGGCATGGACCGGTTTTCCCGGTAATCCGTATTTGGT (site GGAGTGGCTAC)” the “recombinant UMI read abundance (log10)” value was 0.101.
In the case of “AGAGTGGCATGGACCGGTTTTCCCGGTAATCCGTATTTGGT (site TGAGTGGCTAC)”, the “recombinant UMI read abundance (log10)” value is reported as 0.546.
With “AGATATCCATGGACCGGTTTTCCCGGTAATCCGTATTTGAT (site AGATATCCTAT)” the “recombinant UMI read abundance (log10)” value was 1.12.
With “AGATCAGCATGGACCGGTTTTCCCGGTAATCCGTATTTGCT (site AGATCAGCTAG)” the “recombinant UMI read abundance (log10)” value was 2.68.
For “AGATCAGCATGGACCGGTTTTCCCGGTAATCCGTATTTGCT (site CGATCATCTAG)”, the “recombinant UMI read abundance (log10)” value was 0.
For “AGATCAGCATGGACCGGTTTTCCCGGTAATCCGTATTTGGG (site AGATCAGCTCC)”, the “recombinant UMI read abundance (log10)” value was 0.224.
For “AGATCAGCATGGACCGGTTTTCCCGGTAATCCGTATTTGGG (site AGCTCAGCTCC)”, the “recombinant UMI read abundance (log10)” value was 0.00476.
For “AGATCAGCATGGACCGGTTTTCCCGGTAATCCGTATTTGGG (site AGGTCAGCTCC)”, the “recombinant UMI read abundance (log10)” value was 0.014.
In the case of “AGATCAGCATGGACCGGTTTTCCCGGTAATCCGTATTTGGG (site AGTTCAGCTCC)”, the “recombinant UMI read abundance (log10)” value is reported as 0.296.
With “AGATCCTCATGGACCGGTTTTCCCGGTAATCCGTATTTGTT (site AGATCCTCTAA)” the “recombinant UMI read abundance (log10)” value was 2.08.
With “AGATCGACATGGACCGGTTTTCCCGGTAATCCGTATTTGTT (site AGATCGACTAA)” the “recombinant UMI read abundance (log10)” value was 0.688.
In the case of “AGATCGACATGGACCGGTTTTCCCGGTAATCCGTATTTGTT (site CGATCGACTAA)”, the “recombinant UMI read abundance (log10)” value is reported as 0.0123.
In the case of “AGATCGACATGGACCGGTTTTCCCGGTAATCCGTATTTGTT (site GGATCGACTAA)”, the “recombinant UMI read abundance (log10)” value is reported as 0.012.
